Results taken from US20230398233A1, “OCULAR ANTIBODY-DRUG CONJUGATES” (ADS THERAPEUTICS LLC, priority 2020, published 2023).

Test: Hydrolysis in water control (phosphate buffer)
Settings: water control (method: phosphate buffer), 37° C., 0-72 h
Description: The 2 μL working solution of either the test compound or the control compound was added and mixed. The samples were incubated at 37° C. and the reaction was stopped by adding 200 μL of quenching solution at 0, 1, 4, 8, 12, 24, 48 and 72 and vortexed vigorously for −1 min. The solution was then centrifuged at 4,000 rpm at 4° C. for 15 min. The 100 μL of the supernatant was removed and mixed with 100 μL distilled water for LC-MS/MS analysis. The 10 μL standard curve working solution was spiked to 190 μL phosphate solution, The 200 μL of quenching solution was added to each standard curve wells. The blank sample was prepared by adding 2 μL of MeOH/DMSO solvent to replace the working solution. The double blank samples was prepared by adding 2 μL of MeOH/DMSO solvent to replace the working solution and by quenching the matrix with acetonitrile/MeOH.

- T ½ in water control: No hydrolysis
Substance: mPEG-PrA-Dexa [Compound 2]
